Source: ChEMBL document CHEMBL5291721, “A preclinical secondary pharmacology resource illuminates target-adverse drug reaction associations of marketed drugs” (Nat Commun, 2023)

Legend:
[1] = target: T1, Peroxisome proliferator-activated receptor gamma (Homo sapiens, UniProt P37231); type: functional
T1 sequence (P37231 whole entry): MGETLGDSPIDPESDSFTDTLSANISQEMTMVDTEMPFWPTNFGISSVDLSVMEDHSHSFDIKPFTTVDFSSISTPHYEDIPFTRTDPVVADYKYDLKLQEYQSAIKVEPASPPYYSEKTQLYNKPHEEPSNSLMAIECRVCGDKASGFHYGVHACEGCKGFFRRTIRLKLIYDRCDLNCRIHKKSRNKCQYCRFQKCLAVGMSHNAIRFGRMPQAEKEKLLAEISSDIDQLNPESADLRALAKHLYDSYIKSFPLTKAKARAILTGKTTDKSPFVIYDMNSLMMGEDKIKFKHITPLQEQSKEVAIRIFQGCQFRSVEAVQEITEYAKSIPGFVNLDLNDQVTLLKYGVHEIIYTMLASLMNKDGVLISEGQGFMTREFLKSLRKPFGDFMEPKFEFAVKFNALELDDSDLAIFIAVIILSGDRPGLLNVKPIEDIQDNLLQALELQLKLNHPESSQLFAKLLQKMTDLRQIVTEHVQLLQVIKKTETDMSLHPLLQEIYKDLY

[2] = target: T1, Peroxisome proliferator-activated receptor gamma; type: functional; remark: listed apart in the source
Androgen receptor = target: T2, Androgen receptor (Homo sapiens, UniProt P10275)
T2 sequence (P10275 whole entry): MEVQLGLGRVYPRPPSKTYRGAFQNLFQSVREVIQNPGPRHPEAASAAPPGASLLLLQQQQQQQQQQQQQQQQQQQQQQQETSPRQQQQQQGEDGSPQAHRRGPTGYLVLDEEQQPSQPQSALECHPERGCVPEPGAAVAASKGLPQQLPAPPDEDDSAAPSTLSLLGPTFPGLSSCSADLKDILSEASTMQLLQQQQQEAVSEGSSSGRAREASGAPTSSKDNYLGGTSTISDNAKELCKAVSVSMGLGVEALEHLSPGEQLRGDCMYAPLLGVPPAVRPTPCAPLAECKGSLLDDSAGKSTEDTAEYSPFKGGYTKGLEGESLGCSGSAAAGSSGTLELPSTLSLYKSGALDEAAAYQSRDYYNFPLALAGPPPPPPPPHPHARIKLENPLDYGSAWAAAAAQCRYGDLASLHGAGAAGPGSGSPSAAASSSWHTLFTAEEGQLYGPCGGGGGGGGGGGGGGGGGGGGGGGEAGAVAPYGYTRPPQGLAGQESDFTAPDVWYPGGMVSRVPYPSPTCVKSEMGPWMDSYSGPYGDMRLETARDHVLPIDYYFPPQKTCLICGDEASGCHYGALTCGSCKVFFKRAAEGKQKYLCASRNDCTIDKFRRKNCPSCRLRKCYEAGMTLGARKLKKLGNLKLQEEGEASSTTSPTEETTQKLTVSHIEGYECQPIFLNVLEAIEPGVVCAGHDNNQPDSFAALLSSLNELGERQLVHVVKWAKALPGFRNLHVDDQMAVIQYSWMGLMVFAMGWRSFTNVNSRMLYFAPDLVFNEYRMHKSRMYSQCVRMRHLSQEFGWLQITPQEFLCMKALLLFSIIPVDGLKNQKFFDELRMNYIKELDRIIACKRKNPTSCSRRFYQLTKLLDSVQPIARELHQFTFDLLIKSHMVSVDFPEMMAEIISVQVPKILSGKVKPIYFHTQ

[3] = target: Gamma-aminobutyric acid receptor subunit alpha-1 (Rattus norvegicus, UniProt P62813)
Progesterone receptor = target: T3, Progesterone receptor (Homo sapiens, UniProt P06401)
T3 sequence (P06401 whole entry): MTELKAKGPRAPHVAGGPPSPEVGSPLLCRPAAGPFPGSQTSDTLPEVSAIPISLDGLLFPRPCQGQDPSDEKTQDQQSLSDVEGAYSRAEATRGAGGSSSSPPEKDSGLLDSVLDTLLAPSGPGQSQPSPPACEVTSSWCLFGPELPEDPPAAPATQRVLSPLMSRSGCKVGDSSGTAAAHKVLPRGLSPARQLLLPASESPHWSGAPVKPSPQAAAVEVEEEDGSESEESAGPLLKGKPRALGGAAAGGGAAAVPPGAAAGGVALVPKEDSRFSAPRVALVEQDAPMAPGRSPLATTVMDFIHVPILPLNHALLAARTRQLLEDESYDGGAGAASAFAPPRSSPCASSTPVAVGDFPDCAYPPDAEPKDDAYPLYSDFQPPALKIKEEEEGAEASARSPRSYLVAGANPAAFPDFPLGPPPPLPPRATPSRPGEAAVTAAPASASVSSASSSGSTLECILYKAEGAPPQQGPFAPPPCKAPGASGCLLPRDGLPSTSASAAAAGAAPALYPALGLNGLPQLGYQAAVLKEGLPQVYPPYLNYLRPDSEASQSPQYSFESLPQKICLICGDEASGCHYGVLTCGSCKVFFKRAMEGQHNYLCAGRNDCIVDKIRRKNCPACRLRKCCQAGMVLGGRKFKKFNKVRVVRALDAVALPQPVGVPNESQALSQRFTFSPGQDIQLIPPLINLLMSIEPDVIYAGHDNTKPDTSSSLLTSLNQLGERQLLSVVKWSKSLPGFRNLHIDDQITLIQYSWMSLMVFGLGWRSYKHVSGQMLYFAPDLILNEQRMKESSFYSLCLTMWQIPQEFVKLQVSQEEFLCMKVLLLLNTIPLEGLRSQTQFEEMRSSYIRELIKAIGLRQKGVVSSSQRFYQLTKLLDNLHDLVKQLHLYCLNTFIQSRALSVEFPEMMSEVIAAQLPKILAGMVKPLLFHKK

[4] = target: Gamma-aminobutyric acid receptor subunit alpha-1/alpha-2/beta-2/gamma-2 (Homo sapiens, UniProt P14867+P18507+P47869+P47870); type: protein-complex assay
[5] = target: Sodium channel protein type 5 subunit alpha (Homo sapiens, UniProt Q14524); type: functional, cell-based
Also: assay procedure not described here.

Sequence of Gamma-aminobutyric acid receptor subunit alpha-1/alpha-2/beta-2/gamma-2 (P14867 whole entry): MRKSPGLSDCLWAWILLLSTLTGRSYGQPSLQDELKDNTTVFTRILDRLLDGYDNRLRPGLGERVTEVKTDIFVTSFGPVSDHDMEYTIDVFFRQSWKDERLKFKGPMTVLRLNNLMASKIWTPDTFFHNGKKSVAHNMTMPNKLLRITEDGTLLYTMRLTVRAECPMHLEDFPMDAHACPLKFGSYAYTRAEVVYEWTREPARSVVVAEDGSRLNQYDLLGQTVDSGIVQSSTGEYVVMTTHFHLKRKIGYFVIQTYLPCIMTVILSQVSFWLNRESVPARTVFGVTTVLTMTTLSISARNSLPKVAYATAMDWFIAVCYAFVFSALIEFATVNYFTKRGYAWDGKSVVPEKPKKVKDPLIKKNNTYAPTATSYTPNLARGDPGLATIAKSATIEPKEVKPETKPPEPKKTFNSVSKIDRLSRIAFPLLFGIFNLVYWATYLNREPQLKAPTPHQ
Sequence of Gamma-aminobutyric acid receptor subunit alpha-1/alpha-2/beta-2/gamma-2 (P47870 whole entry): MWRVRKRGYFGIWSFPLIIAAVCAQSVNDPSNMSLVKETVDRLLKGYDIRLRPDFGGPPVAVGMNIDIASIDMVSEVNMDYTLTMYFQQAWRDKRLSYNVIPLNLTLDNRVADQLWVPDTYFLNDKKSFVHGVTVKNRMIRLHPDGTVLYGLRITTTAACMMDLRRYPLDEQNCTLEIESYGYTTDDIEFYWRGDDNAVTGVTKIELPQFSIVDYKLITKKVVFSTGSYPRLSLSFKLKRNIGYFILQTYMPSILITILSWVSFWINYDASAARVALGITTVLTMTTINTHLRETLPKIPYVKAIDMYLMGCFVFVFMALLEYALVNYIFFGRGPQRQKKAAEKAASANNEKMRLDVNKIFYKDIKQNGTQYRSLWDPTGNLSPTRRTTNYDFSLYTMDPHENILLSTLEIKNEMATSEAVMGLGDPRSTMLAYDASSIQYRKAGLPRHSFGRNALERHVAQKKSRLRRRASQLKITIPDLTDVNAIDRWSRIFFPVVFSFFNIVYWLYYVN
Sequence of Gamma-aminobutyric acid receptor subunit alpha-1/alpha-2/beta-2/gamma-2 (P18507 whole entry): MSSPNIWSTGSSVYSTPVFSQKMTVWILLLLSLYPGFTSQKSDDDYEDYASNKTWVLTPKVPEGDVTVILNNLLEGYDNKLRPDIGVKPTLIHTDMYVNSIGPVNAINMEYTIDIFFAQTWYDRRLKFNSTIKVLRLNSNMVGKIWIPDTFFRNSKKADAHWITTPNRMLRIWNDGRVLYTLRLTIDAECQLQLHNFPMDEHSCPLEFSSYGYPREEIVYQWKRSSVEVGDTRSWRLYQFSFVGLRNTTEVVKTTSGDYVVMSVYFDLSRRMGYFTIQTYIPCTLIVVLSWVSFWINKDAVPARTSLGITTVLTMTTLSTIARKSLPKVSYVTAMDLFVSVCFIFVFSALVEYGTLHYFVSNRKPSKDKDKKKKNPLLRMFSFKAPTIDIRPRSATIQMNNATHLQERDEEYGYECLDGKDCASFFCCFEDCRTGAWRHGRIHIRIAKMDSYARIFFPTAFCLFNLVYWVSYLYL
Sequence of Gamma-aminobutyric acid receptor subunit alpha-1/alpha-2/beta-2/gamma-2 (P47869 whole entry): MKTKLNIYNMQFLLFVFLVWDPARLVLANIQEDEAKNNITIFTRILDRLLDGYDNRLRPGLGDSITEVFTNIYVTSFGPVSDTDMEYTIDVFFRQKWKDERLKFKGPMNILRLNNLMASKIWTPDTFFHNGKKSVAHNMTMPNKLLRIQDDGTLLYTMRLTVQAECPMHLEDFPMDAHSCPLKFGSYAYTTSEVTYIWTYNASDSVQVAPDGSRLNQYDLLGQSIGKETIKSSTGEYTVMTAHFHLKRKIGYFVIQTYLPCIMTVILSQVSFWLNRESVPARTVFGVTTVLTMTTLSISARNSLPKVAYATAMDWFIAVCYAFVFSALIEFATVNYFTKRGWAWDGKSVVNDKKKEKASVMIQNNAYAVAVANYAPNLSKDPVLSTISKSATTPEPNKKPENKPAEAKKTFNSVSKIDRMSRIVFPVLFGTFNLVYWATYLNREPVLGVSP
Sequence of Gamma-aminobutyric acid receptor subunit alpha-1 (P62813 whole entry): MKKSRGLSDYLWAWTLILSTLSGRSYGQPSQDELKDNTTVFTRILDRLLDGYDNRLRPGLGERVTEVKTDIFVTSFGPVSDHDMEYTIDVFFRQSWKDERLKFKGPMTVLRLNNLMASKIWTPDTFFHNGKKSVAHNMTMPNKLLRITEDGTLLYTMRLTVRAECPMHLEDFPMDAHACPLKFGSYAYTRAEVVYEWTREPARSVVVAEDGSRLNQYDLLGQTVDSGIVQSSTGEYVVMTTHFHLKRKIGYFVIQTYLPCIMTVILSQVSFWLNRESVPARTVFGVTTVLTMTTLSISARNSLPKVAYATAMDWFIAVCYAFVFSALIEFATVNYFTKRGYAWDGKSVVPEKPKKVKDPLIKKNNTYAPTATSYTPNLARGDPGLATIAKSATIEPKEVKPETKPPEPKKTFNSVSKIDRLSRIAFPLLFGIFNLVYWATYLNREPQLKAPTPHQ
Sequence of Sodium channel protein type 5 subunit alpha (Q14524 whole entry): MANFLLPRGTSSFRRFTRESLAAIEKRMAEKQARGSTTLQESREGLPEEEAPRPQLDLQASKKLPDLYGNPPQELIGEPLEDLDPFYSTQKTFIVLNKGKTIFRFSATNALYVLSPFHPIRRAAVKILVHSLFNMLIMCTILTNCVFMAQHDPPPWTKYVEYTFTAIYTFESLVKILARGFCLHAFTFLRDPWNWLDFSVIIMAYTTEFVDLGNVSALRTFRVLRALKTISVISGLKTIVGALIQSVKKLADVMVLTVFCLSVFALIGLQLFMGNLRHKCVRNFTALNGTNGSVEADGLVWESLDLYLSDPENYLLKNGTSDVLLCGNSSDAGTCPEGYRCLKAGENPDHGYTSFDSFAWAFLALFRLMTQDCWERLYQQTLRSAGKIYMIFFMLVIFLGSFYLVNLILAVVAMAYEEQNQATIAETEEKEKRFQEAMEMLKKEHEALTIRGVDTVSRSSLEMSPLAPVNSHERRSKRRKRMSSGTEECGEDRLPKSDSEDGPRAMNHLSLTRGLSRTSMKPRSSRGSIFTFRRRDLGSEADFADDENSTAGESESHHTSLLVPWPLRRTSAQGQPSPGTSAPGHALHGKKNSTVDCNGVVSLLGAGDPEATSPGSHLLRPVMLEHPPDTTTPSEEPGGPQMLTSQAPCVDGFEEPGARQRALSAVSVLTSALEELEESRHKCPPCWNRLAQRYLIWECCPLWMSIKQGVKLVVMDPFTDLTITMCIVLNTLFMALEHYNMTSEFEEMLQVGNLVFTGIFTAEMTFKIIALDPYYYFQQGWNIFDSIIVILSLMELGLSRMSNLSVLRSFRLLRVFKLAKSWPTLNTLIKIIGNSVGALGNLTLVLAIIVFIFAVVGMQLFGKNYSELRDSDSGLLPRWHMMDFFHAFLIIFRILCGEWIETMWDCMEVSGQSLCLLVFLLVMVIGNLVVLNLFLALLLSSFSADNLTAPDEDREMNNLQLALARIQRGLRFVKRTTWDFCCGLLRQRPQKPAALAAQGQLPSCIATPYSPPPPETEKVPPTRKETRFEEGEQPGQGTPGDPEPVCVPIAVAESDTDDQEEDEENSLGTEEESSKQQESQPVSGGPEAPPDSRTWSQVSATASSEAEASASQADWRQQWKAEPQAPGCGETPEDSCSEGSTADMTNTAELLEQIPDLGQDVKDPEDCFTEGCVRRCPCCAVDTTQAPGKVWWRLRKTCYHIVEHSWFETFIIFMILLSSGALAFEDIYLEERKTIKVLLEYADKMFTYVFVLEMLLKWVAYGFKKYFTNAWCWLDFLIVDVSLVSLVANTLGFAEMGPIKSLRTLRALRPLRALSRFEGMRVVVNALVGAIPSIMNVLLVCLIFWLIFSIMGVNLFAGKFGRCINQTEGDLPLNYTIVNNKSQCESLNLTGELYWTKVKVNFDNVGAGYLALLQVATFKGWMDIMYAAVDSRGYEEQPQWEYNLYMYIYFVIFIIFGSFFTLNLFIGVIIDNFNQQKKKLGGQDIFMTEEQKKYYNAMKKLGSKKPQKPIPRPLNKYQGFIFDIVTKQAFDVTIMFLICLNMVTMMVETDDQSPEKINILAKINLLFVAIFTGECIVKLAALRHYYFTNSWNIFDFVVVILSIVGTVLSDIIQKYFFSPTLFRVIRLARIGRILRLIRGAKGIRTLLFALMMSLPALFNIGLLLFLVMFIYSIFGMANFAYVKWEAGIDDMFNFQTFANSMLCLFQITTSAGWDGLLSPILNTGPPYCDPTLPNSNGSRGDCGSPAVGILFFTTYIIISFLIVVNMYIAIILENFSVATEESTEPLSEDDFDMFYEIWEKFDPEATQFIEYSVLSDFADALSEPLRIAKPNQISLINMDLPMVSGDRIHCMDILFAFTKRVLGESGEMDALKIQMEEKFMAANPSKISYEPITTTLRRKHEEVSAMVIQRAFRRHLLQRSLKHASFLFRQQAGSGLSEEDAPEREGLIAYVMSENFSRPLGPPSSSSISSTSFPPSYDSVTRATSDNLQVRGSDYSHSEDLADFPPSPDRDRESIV

## CCOCC(O)COc1ccc(NC(=O)CC[S+](C)C)cc1 (stereo not drawn)
[1]
  AC50: > 30 µM
[2]
  AC50: > 30 µM

## CCCCCCCCCCCCCCCC(=O)OC[C@H](COP(=O)([O-])OCC[N+](C)(C)C)OC(=O)CCCCCCCCCCCCCCC [COLFOSCERIL PALMITATE]
Androgen receptor
  AC50: > 30 µM
[3]
  AC50: > 30 µM

## COc1cccc2c1C(=O)c1c(O)c3c(c(O)c1C2=O)C[C@@](O)(C(=O)CO)C[C@@H]3O[C@H]1C[C@H](N)[C@H](O[C@@H]2CCCCO2)[C@H](C)O1 [PIRARUBICIN]
Androgen receptor
  AC50: > 30 µM
[3]
  AC50: > 30 µM

## O=C(O)[C@H]1/C(=C/CO)O[C@@H]2CC(=O)N21 [CLAVULANIC ACID]
[1]
  AC50: > 30 µM
[2]
  AC50: > 30 µM

## CCOc1ccccc1OCCN[C@H](C)Cc1ccc(OC)c(S(N)(=O)=O)c1 [TAMSULOSIN]
Progesterone receptor
  AC50: > 30 µM

## O=C(O)[C@H](O)[C@@H](O)[C@H](O)[C@H](O)CO [GLUCONIC ACID]
[4]
  AC50: > 30 µM

## CC(C)(Oc1ccc(Cl)cc1)C(=O)NC(=O)NCN1CCOCC1 [PLAFIBRIDE]
[4]
  AC50: > 30 µM
Androgen receptor
  AC50: > 30 µM

## C#CCN(C)Cc1ccccc1 [PARGYLINE]
[3]
  AC50: > 30 µM

## N=C(N)NCC1COc2ccccc2O1 (stereo not drawn) [GUANOXAN]
[3]
  AC50: > 30 µM

## CN(C)CCCC1(c2ccc(F)cc2)OCc2cc(C#N)ccc21 (stereo not drawn) [CITALOPRAM]
Progesterone receptor
  AC50: > 30 µM
[5]
  AC50: > 30 µM
[3]
  AC50: > 30 µM

## N[C@@H](Cc1cc(I)c(Oc2cc(I)c(O)c(I)c2)c(I)c1)C(=O)O [LEVOTHYROXINE]
[1]
  AC50: > 30 µM
[2]
  AC50: > 30 µM

## N#Cc1ccnc(N2C(=O)CC[C@H]2C(=O)N(c2cncc(F)c2)[C@H](C(=O)NC2CC(F)(F)C2)c2ccccc2Cl)c1 [IVOSIDENIB]
[4]
  AC50: > 30 µM
Androgen receptor
  AC50: > 30 µM
[5]
  AC50: > 50 µM

## CC(C)Nc1cccnc1N1CCN(C(=O)c2cc3cc(NS(C)(=O)=O)ccc3[nH]2)CC1 [DELAVIRDINE]
[4]
  AC50: > 10 µM

## O=c1[nH]c2ccccc2n1CCN1CCN(c2cccc(C(F)(F)F)c2)CC1 [FLIBANSERIN]
[4]
  AC50: > 10 µM
Androgen receptor
  AC50: > 30 µM

## C[C@]12CCC(=O)C=C1CC[C@H]1[C@@H]3CC[C@](O)(C(=O)CO)[C@@]3(C)C[C@H](O)[C@@]12F [FLUDROCORTISONE]
Progesterone receptor
  AC50: > 30 µM

## C[C@H](CS)C(=O)N1CCC[C@H]1C(=O)O [CAPTOPRIL]
Progesterone receptor
  AC50: > 30 µM

## CN(C)CCN(Cc1ccccc1)c1ccccn1 [TRIPELENNAMINE]
[3]
  AC50: > 30 µM

## C=CC1=C(C(=O)O)N2C(=O)[C@@H](NC(=O)/C(=N\O)c3csc(N)n3)[C@H]2SC1
Progesterone receptor
  AC50: > 30 µM

## CO[C@@]1(NC(=O)C(C(=O)O)c2ccc(O)cc2)C(=O)N2C(C(=O)O)=C(CSc3nnnn3C)CO[C@@H]21 (stereo partly drawn) [MOXALACTAM]
[3]
  AC50: > 30 µM

## CN(C)CCOC(c1ccc(Cl)cc1)c1ccccn1 (stereo not drawn) [CARBINOXAMINE]
[1]
  AC50: > 30 µM
[2]
  AC50: > 30 µM

## CCOC(=O)[C@H](CCc1ccccc1)N[C@@H](C)C(=O)N1Cc2ccccc2C[C@H]1C(=O)O
Progesterone receptor
  AC50: > 30 µM
[5]
  AC50: > 30 µM
[3]
  AC50: > 30 µM

## CCCCCCCC/C=C\CCCCCCCC(=O)O [OLEIC ACID]
[4]
  AC50: > 30 µM
[1]
  AC50: > 300 µM
[2]
  AC50: > 300 µM

## C[C@]12CC[C@@H]3c4ccc(OC(=O)N(CCCl)CCCl)cc4CC[C@H]3[C@@H]1CC[C@@H]2OP(=O)(O)O [ESTRAMUSTINE PHOSPHATE]
Androgen receptor
  AC50: > 30 µM
[3]
  AC50: > 30 µM

## O=c1[nH]cc(F)c(=O)[nH]1 [FLUOROURACIL]
[3]
  AC50: > 30 µM

## O=NN(CCCl)C(=O)NC1CCCCC1 [LOMUSTINE]
[3]
  AC50: > 30 µM

## O=C(O)COC(=O)Cc1ccccc1Nc1c(Cl)cccc1Cl [ACECLOFENAC]
Progesterone receptor
  AC50: > 30 µM

## CC#CC(=O)N1CCC[C@H]1c1nc(-c2ccc(C(=O)Nc3ccccn3)cc2)c2c(N)nccn12 [ACALABRUTINIB]
[4]
  AC50: > 30 µM
Androgen receptor
  AC50: > 30 µM
[3]
  AC50: > 30 µM

## CC1=C(C/C=C(\C)CCC[C@H](C)CCC[C@H](C)CCCC(C)C)C(=O)c2ccccc2C1=O [PHYTONADIONE]
[4]
  AC50: > 30 µM

## CC(=O)SCC(Cc1ccccc1)C(=O)NCC(=O)OCc1ccccc1 (stereo not drawn) [RACECADOTRIL]
Progesterone receptor
  AC50: > 30 µM

## CNC1(c2ccccc2Cl)CCCCC1=O (stereo not drawn) [KETAMINE]
[4]
  AC50: > 30 µM

## NC(=O)C1(N2CCCCC2)CCN(CCCC(=O)c2ccc(F)cc2)CC1 [PIPAMPERONE]
[4]
  AC50: > 30 µM

## CC(C)NC[C@H](O)COc1ccc(O)cc1 [PRENALTEROL]
[4]
  AC50: > 30 µM
Androgen receptor
  AC50: > 30 µM
[3]
  AC50: > 30 µM

## CN1CCC(N(Cc2cccs2)c2ccccc2)CC1 [THENALIDINE]
[3]
  AC50: > 30 µM

## Cc1cccc(C)c1NC(=O)c1cc(S(N)(=O)=O)c(Cl)cc1O [XIPAMIDE]
[4]
  AC50: > 30 µM

## CS(=O)(=O)Nc1ccc([N+](=O)[O-])cc1Oc1ccccc1 [NIMESULIDE]
[4]
  AC50: > 30 µM

## CC(=O)NC[C@H]1CN(c2ccc(N3CCOCC3)c(F)c2)C(=O)O1 [LINEZOLID]
[5]
  AC50: > 50 µM

## Cc1c(C)c2c(c(C)c1O)CCC(C)(COc1ccc(CC3SC(=O)NC3=O)cc1)O2 (stereo not drawn) [TROGLITAZONE]
[4]
  AC50: > 3 µM
Progesterone receptor
  AC50: > 30 µM
Androgen receptor
  AC50: 5.72 µM

## CCCCCCO[C@@H](C)c1cccc(-c2csc(NC(=O)c3cc(Cl)c(/C=C(\C)C(=O)O)c(Cl)c3)n2)c1OC [LUSUTROMBOPAG]
Androgen receptor
  AC50: > 30 µM
[3]
  AC50: > 30 µM

## NC(=O)C1(N2CCCCC2)CCN(CCCN2c3ccccc3CCc3ccccc32)CC1 [CARPIPRAMINE]
[4]
  AC50: > 30 µM
Androgen receptor
  AC50: > 30 µM

## O=C(Cc1cccs1)N[C@@H]1C(=O)N2C(C(=O)[O-])=C(C[n+]3ccccc3)CS[C@H]12 [CEPHALORIDINE]
Androgen receptor
  AC50: > 30 µM
[3]
  AC50: > 30 µM

## C=CCOc1ccc(CC(=O)O)cc1Cl [ALCLOFENAC]
[3]
  AC50: > 30 µM

## OC[C@H]1NC[C@H](O)[C@@H](O)[C@H]1O
Androgen receptor
  AC50: > 30 µM
[3]
  AC50: > 30 µM

## Cc1ccc(C(C)C)c(O)c1 [THYMOL]
[4]
  AC50: > 30 µM

## O=C(O)[C@@H](S)[C@@H](S)C(=O)O
[3]
  AC50: > 30 µM

## Cc1cc(C)cc(OCC2CNC(=O)O2)c1 (stereo not drawn) [METAXALONE]
[3]
  AC50: > 30 µM

## Nc1nnc(-c2cccc(Cl)c2Cl)c(N)n1 [LAMOTRIGINE]
Progesterone receptor
  AC50: > 30 µM
[5]
  AC50: > 50 µM

## C[C@@H](CN1CC(=O)NC(=O)C1)N1CC(=O)NC(=O)C1 [DEXRAZOXANE]
Androgen receptor
  AC50: > 30 µM
[3]
  AC50: > 30 µM

## O=P1(N(CCCl)CCCl)NCCCO1 (stereo not drawn) [CYCLOPHOSPHAMIDE ANHYDROUS]
[4]
  AC50: > 30 µM

## CN1CCN(C(c2ccccc2)c2ccc(Cl)cc2)CC1 (stereo not drawn) [CHLORCYCLIZINE]
[4]
  AC50: > 30 µM
